Where two headings read alike, the source gives them in different places.
Tests used:
Jurkat cells = test: 96-well microtiter plate drug screening assay (Alamar Blue); format: cell-based, human; conditions: 96-well plate, 16-24 h
Procedure: (§1) Jurkat E6.1 cells (ATCC® TIB-152™) and MDA-MB-231 cells (ATCC® HTB-26™) were used as models for suspended and adherent cancer cell lines respectively. Jurkat cell line was derived from human acute T cell leukemia, whereas MDA-MB-231 cell line was derived from human metastatic breast adenocarcinoma.
(§2) Microtiter plate drug screening assays were carried out on 96-well clear round flat-bottom plates (Corning, USA) or 384-well white square flat-bottom plates (Corning, USA).
(§3) First, 5.0×10^5 or 1.0×10^5 cells were seeded per well for 96-well and 384-well plates respectively. Drugs were diluted with Dulbecco's phosphate-buffered saline (DPBS) (Life Technologies, USA), and subsequently added to achieve final drug concentrations as indicated on the graphs. Afterwards, the plates were transferred to humidified incubator at 37° C. supplemented with 5% CO2 for 16-24 h incubation. Finally, Alamar Blue assay was used to measure cell viability. Fluorescence intensity (Ex. 560 nm, Em. 590 nm) using auto-cutoff was measured from bottom on plate reader (Molecular Devices SpectraMax MS Plate Reader, USA). Cells treated with 0.1% dimethyl sulfoxide (DMSO) were used as negative control, while no cells were added to blank control. All experiments were performed in triplicate for 96-well plates and in quadruplicates for 384-well relates.
(§4) For microliter plate assays, average relative fluorescence signal measured by plate reader from 6 reads of each well was used as raw data point. Cell viability was calculated as follows: […]
(§5) where Sample represented raw data points of each sample well, whereas DMSO control and Blank represented average raw data points of all DMSO control and Blank wells, respectively.

MDA-MB-231 cells = test: as above; format: cell-based, human; conditions: 96-well plate
Procedure: as §1, §2, §3, §4, §5

[1] = test system: primary tumor cell NAS1604 (nasopharyngeal tumor); test: On chip drug screening of primary tumor dissociated cells; format: cell-based, human
[2] = test system: derived cell line NAS1604C; test: On chip drug screening of derived cell line; format: cell-based, human
Procedure: On chip drug screening was performed using the PDMS-based microfluidic chip as described above. A 500 μL glass syringe (Hamilton, USA) and polytetrafluoroethylene (PTFE) tubings with appropriate bore (Cole Parmer, USA) was used to connect between the syringe pump (Harvard Apparatus PHD Ultra Syringe Pump, USA) and the microfluidic chip. Fluorinert® FC-40 (Sigma-Aldrich, USA) supplemented with 2% 008-Fluorosurfactant (Ran Biotechnologies, USA) was used as oil phase; relevant cell culture medium, supplemented with 1% (w/v) methyl cellulose (Sigma-Aldrich, USA) was used as aqueous phase. Cells treated with 0.1% dimethyl sulfoxide (DMSO) were used as negative control.
Briefly, cells at final concentrations of 1-2×10^6 cells per mL were aliquoted in 0.2 mL PCR tubes, then mixed with corresponding drugs and 2 μM ethidium homodimer 1 (Life Technologies, USA) by manual pipetting. Next, […], cell-drug mixtures were loaded into the tubing, consecutively segregated by oil phase at withdrawal rate of 200 μL/h by syringe pump. After loading all mixtures, the tubing was inserted into the microfluidic chip, which was back-flushed with oil phase at 500 μL/h by syringe pump. After that, the mixtures were infused at 25 μL/h by syringe pump. Finally, the inlet and outlet tubings were cut and sealed with Vaseline (Vaseline, USA). The chips were placed in 150 mm cell culture dish (Coming, USA) containing wet paper towels, and transferred to humidified incubator at 37° C. supplemented with 5% CO2 for 16-24 h incubation. Brightfield and red fluorescence images (Ex. 531/40 nm, Em. 593/40 nm) were taken under 10× magnification (Life Technologies EVOS FL Imaging System, USA).
(§6) For on chip assays, the number of cells was counted in brightfield and red fluorescence images from each well respectively. Cell viability was calculated as follows: […]
where Total cells and Dead cells referred to the total number of cells counted from brightfield and red fluorescence images, respectively.
Drug susceptibility between the primary tumor cell NAS1604 and its derived cell line NAS1604C was compared (FIG. 9). […] Here, the concept of droplet cell viability was introduced to indicate the total number of live cells among all cells in each individual droplet; in turn, the range of droplet cell viability referred to the range of cell viability of all droplets under specified treatment condition. […] On the other hand, mean cell viability of all treatment conditions were higher in the derived cell line NAS1604C than corresponding conditions in the primary tumor cell NAS1604, reminiscent of increased cell viability that was required for tumor amplification.

[3] = test system: NAS1608 human primary nasopharyngeal tumor sample; test: cells; format: cell-based; conditions: for viability at 1 µM / viability at 10 µM / cytotoxicity at 10 µM: Homo sapiens; for viability at 1 µM / viability at 10 µM: read-out: mean cell viability; for droplet cell viability range: 17 h post-treatment; for range of droplet cell viability: before treatment (0 h); for mean cell death: normalized to DMSO control, calibrated by 0 h data
[4] = test system: NAS1607 primary nasopharyngeal tumor sample; test: On chip drug screening of primary tumor dissociated cells; format: cell-based, human
Procedure: All human studies were conducted with the approval of the Panel on Research Ethics of University of Macau and the Research Ethics Committee of Kiang Wu Hospital, according to the Materials Transfer Agreement between University of Macau and Kiang Wu Hospital. Informed consent for sampling and publication without identifiable information was obtained from all participating patients. All patient sample names were double encoded by the university and the hospital, respectively, to remove any trace of patient identity during sample collection, transfer, processing and analysis. Primary tumors were obtained from surgery conducted at Kiang Wu Hospital immediately after tumor resection. Tumor tissue was dissociated as previously described. Briefly, tumor tissue was first cut into small pieces by a scalpel, then transferred to a 50 mL conical tube containing 5 mL Digestion Buffer I (DMEM/F12 medium containing 5% FBS, 5 μg/mL insulin, 500 ng/mL hydrocortisone, 10 ng/mL epidermal growth factor (EGF), 20 ng/mL cholera toxin, 300 U/mL collagenase III and 100 U/mL hyaluronidase), and digested for no more than 12 h with shaking at 100 rpm in humidified incubator at 37° C. supplemented with 5% CO2. After spinning down at 400 g at ambient temperature for 2 min, the cells were resuspended with 2 mL Digestion Buffer II (DMEM/F12 medium containing 5 mg/mL dispase II and 0.1 mg/mL deoxyribonuclease I), followed by digestion at ambient temperature for 5 min. The cells were then washed with 10 mL HBSS (Life Technologies, USA). […]
Briefly, cells at final concentrations of 1-2×10^6 cells per mL were aliquoted in 0.2 mL PCR tubes, then mixed with corresponding drugs and 2 μM ethidium homodimer 1 (Life Technologies, USA) by manual pipetting. […] Brightfield and red fluorescence images (Ex. 531/40 nm, Em. 593/40 nm) were taken under 10× magnification (Life Technologies EVOS FL Imaging System, USA).
as §6

SMILES: CC(C)C[C@H](NC(=O)[C@H](Cc1ccccc1)NC(=O)c1cnccn1)B(O)O [bortezomib]
- IC50 (Jurkat cells; Homo sapiens): 22.1 µM
- IC50 (MDA-MB-231 cells; Homo sapiens): > 10 µM
- range of droplet cell viability ([1]; NAS1604, 1 μM bortezomib): 42.6%
- mean cell viability compared with other treatments ([1]; NAS1604, 1 μM, versus DMSO and cisplatin): highest mean cell viability
- droplet cell viability range ([2]; 1 μM bortezomib): 37.5%
- droplet cell viability range after removal of one droplet outlier ([2]; 1 μM bortezomib): 16.1%
- cell viability compared with mock treatment ([2]; 1 μM, versus DMSO): highest cell viability
- viability at 1 µM ([3]; 0 h): 72.9%
- viability at 10 µM ([3]; 0 h): 78.8%
- cytotoxicity at 10 µM ([3]; 17 h, read-out: droplet cell viability reduction in the majority of droplets): 35 to 55%
- cytotoxicity at 10 µM ([3]; 17 h, read-out: maximum reduction of droplet cell viability): 62.9%
- viability at 1 µM ([3]; 17 h): 42.5%
- viability at 10 µM ([3]; 17 h): 34.6%
- cytotoxicity at 10 µM ([3]; 17 h, read-out: minimum reduction of droplet cell viability): 29.3%
- share of total sample cell population in droplets with viability reduction of over 30% ([3]; NAS1608, 10 μM bortezomib, 17 h): 92.4%
- droplet cell viability range ([3]; NAS1608, 10 μM bortezomib): 49.7%
- range of droplet cell viability ([3]; NAS1608, 10 μM bortezomib): 29.0%
- mean cell death ([3]; NAS1608, 10 μM, 17 h): 51.7%
- dose dependence of normalized cell viability ([3]; NAS1608, 16-24 h, normalized to mock treatment): dose-dependent reduction of cell viability
- dose dependence of normalized cell viability ([4]; NAS1607, 16-24 h, normalized to mock treatment): inverse correlation

SMILES: N.N.[Cl][Pt][Cl] [cisplatin]
- IC50 (Jurkat cells): 39 µM
- IC50 (MDA-MB-231 cells): > 50 µM
- mean cell viability compared with other treatments ([1]; NAS1604, 20 μM): lowest mean cell viability
- range of droplet cell viability ([1]; NAS1604, 20 μM cisplatin): 64.0%
- droplet cell viability range ([2]; 11 μM cisplatin): 36.5%
- droplet cell viability range ([2]; 33 μM cisplatin): 71.6%
- droplet cell viability range after removal of one droplet outlier ([2]; 33 μM cisplatin): 40.8%
- dose dependence of response ([2]; 11 and 33 μM): dose-dependent response
- droplet cell viability range ([3]; NAS1608, 100 μM cisplatin): 56.5%
- range of droplet cell viability ([3]; NAS1608, 100 μM cisplatin): 31.1%
- mean cell death ([3]; NAS1608, 100 μM, 17 h): 21.0%
- susceptibility ([4]; NAS1607, 100 μM and 33 μM): leveled off
